Values quoted from earlier work as cited in paper PMC9825171 (Nucleic Acids Research, 2022).

System: interactions of both NICD and SHARP with RBPJ
Conditions: cellular assays; ref [63]

Cn1nccc1-c1ccc(C(N)=O)c(Oc2ccccc2F)c1 [RIN1]
effect on RBPJ-coregulator interactions, in words: block the interactions of both NICD and SHARP with RBPJ
